Reference: US5798381A, “Biologically active bistramides, process for their production and their applications in therapy” (Institut Francais de Recherche Scientifique pour le …, priority 1993, dated 1998)
Converted amounts (≈) assume the structure as drawn.

How the values were obtained:
mice = assay: Acute toxicity (LD50), intravenous injection in mice; type: in vivo; settings: statement in words
Protocol: The LD50 of these bistramides is in fact of the order of 1.7 mg/kg (measured in mice, after injection of the product by intravenous route as a single dose).
The "LD50 " of the products of the invention has been measured for mice after injection of the products by intravenous route.

P388/dox (p388r) = assay: Cytotoxicity, 50% inhibition of cell growth, P388/dox (resistant to doxorubicin); type: cell-based; settings: Mus musculus
Protocol: (§1) The cytoxicity results are recorded hereafter as the IC50 in μg/ml (concentration corresponding to a 50% inhibition of cell growth) on 6 tumoural lines namely KB, P388, P388/dox (resistant to doxorubicin), B16 and H429 and NSCLC-N6, which are human cells of non-small cell bronchopulmonary carcinoma type.
(§2) The determinations were carried out according to the protocol given in Cancer Chemother. Pharmacol. (1991) 28:283-292 by Roussakis et al.

KB = assay: Cytotoxicity, 50% inhibition of cell growth, KB; type: cell-based; settings: Homo sapiens, read-out: IC50 (50% inhibition of cell growth)
Protocol: as §1, §2

[1] = system: Plasmodium vinckei petteri; assay: Study of the parasitic stage susceptible to bistramides; type: in vivo, Plasmodium vinckei petteri in SWISS female white mice; settings: for patent period: time necessary for the parasitemia to reach 1%: 15 mg/kg, control 5 D
Protocol: In order to appreciate the parasitic stage or stages the most susceptible to the action of the bistramides of the invention, the effect of these bistramides was studied on each parasitic stage predominant during the cell cycle for a given species of Plasmodium.
The results given hereafter concern the effect of bistramide B on the parasitic stages of Plasmodium vinckei petteri.
After infestation of the mice, five batches of five mice are constituted. Each batch is treated with a dose of 15 mg/kg of bistramide D at the moment when one of the stages predominates.
In addition, the following batches are prepared: one control batch, one batch of merozoites, one ring batch, one batch of young trophozoites, one batch of middle trophozoites and one batch of old trophozoites.
The following are evaluated: the retardation of parasitemia or the patent period as the time in days necessary for the parasitemia to reach 1%.

[2] = system: Plasmodium vinckei petteri; assay: Comparison of monodose and multidose therapeutic schema; type: in vivo, Plasmodium vinckei petteri in SWISS female white mice
Protocol: The object is to monitor the parasitemia on a daily basis and to evaluate the inhibition of the parasitemia according to the therapeutic schema adopted for the treatment. The following are shown: the morphological modifications of the parasite by the parasitic formula, calculation of the parasitic formula is also carried out on smears and allows the evaluation of each stage:ring, young trophozoite, middle trophozoite, old trophozite for 100 red blood corpuscles.
a) after infestation, three batches of five mice are constituted, namely
a so-called monodose batch, for which a single injection of bistramide D (15 mg/kg) is given to the mouse on D0
a so-called multidose batch, where the injection of bistramide D is carried out by administering five doses on D0, D1, D2, D3, D4 respectively (total dose 15 mg/kg)
b) the preparation and reading of the smears is carried out every day for 21 days.
The percentage of parasitemia and the percentage inhibition of the development of the parasite is determined for each batch.

B16 = assay: Cytotoxicity, 50% inhibition of cell growth, B16; type: cell-based; settings: Mus musculus, B16; read-out: IC50 (50% inhibition of cell growth)
Protocol: as §1, §2

In the case of `C/C=C/C(O)CC1CCC(C)C(CC(=O)NCC(O)C(C)C(=O)NCCCC2OC3(CCCC(CCC(C)/C=C(\C)C(C)O)O3)CCC2C)O1` (stereo not drawn) [Bistramide D], the toxicity in vivo (mice) is reported as “less toxic”, the IC50 (P388/dox (p388r)) is reported as 5.82 µg/mL (≈ 8.23 µM) and the IC50 (KB) is reported as 10 µg/mL (≈ 14.1 µM). The “stage selectivity / significance versus control batch” value ([1]; KRUSKAL-WALLIS unilateral test, middle and old trophozoite) was “selective activity”, the “patent period: time necessary for the parasitemia to reach 1%” value (“patent period … to reach 1%” below) ([1]; merozoite batch) was 5 D and the “patent period … to reach 1%” value ([1]; middle trophozoite batch) was 6.25 D. For the same compound, the “patent period … to reach 1%” value ([1]; old trophozoite batch) was 6.2 D, the “patent period … to reach 1%” value ([1]; ring batch) was 5.4 D and the “patent period … to reach 1%” value ([1]; young trophozoite batch) was 5.6 D. The “percentage inhibition of the development of the parasite” value (“percentage inhibition” for short) ([2]; Monodose (15 mg/kg on D0), D3) was 51.5%, the parasitemia ([2]; Monodose (15 mg/kg on D0), D3, controls 0.33) was 0.16% and the “percentage inhibition” value ([2]; Monodose (15 mg/kg on D0), D4) was 33.3%. For the same compound, the parasitemia ([2]; Monodose (15 mg/kg on D0), D4, controls 1.2) was 0.80%, the “percentage inhibition” value ([2]; Monodose (15 mg/kg on D0), D5) was 36.3% and the parasitemia ([2]; Monodose (15 mg/kg on D0), D5, controls 5.5) was 3.5%. The “percentage inhibition” value ([2]; Monodose (15 mg/kg on D0), D7) was 0%, the parasitemia ([2]; Monodose (15 mg/kg on D0), D7, controls 50) was 64% and the “percentage inhibition” value ([2]; Monodose (15 mg/kg on D0), D8) was 16.4%. The parasitemia ([2]; Monodose (15 mg/kg on D0), D8, controls 67) was 56%, the “percentage inhibition” value ([2]; Monodose (15 mg/kg on D0), D9) was 12.5% and the parasitemia ([2]; Monodose (15 mg/kg on D0), D9, controls 48) was 42%. For the same compound, the “percentage inhibition” value ([2]; Monodose (15 mg/kg on D0), D10) was 0%, the parasitemia ([2]; Monodose (15 mg/kg on D0), D10, controls 1) was 1% and the “parasitic formula, old trophozoite (OT)” value ([2]; Monodose, D5, control 3%) was 9%. The “parasitic formula, middle trophozoite (MT)” value (“parasitic formula … (MT)” below) ([2]; Monodose, D5, control 7%) was 14%, the “parasitic formula, young trophozoite (YT)” value (“parasitic formula … (YT)” for short) ([2]; Monodose, D5, control 17.5%) was 37% and the “parasitic formula, ring stage (R)” value ([2]; Monodose, D5, control 72.5%) was 40%. The “parasitic formula, old trophozoite (OT)” value ([2]; Monodose, D7, control 10%) was 6%, the “parasitic formula … (MT)” value ([2]; Monodose, D7, control 15%) was 14% and the “parasitic formula … (YT)” value ([2]; Monodose, D7, control 17%) was 31%. For the same compound, the “parasitic formula, ring stage (R)” value ([2]; Monodose, D7, control 58%) was 47%, the “parasitic formula, old trophozoite (OT)” value ([2]; Multidose, D5, control 3%) was 7% and the “parasitic formula … (MT)” value ([2]; Multidose, D5, control 7%) was 40%. The “parasitic formula … (YT)” value ([2]; Multidose, D5, control 17.5%) was 28%, the “parasitic formula, ring stage (R)” value ([2]; Multidose, D5, control 72.5%) was 25% and the “parasitic formula, old trophozoite (OT)” value ([2]; Multidose, D7, control 10%) was 93%. For the same compound, the “parasitic formula … (MT)” value ([2]; Multidose, D7, control 15%) was 0%, the “parasitic formula … (YT)” value ([2]; Multidose, D7, control 17%) was 0% and the “parasitic formula, ring stage (R)” value ([2]; Multidose, D7, control 58%) was 7%. The “percentage inhibition” value ([2]; Multidoses (D0-D4, total 15 mg/kg), D3) was 63.6%, the parasitemia ([2]; Multidoses (D0-D4, total 15 mg/kg), D3, controls 0.33) was 0.12% and the “percentage inhibition” value ([2]; Multidoses (D0-D4, total 15 mg/kg), D4) was 83.3%. The parasitemia ([2]; Multidoses (D0-D4, total 15 mg/kg), D4, controls 1.2) was 0.2%, the “percentage inhibition” value ([2]; Multidoses (D0-D4, total 15 mg/kg), D5) was 70.9% and the parasitemia ([2]; Multidoses (D0-D4, total 15 mg/kg), D5, controls 5.5) was 1.6%. The “percentage inhibition” value ([2]; Multidoses (D0-D4, total 15 mg/kg), D7) was 85.2%, the parasitemia ([2]; Multidoses (D0-D4, total 15 mg/kg), D7, controls 50) was 7.4% and the “percentage inhibition” value ([2]; Multidoses (D0-D4, total 15 mg/kg), D8) was 0%. The parasitemia ([2]; Multidoses (D0-D4, total 15 mg/kg), D8, controls 67) was 74%, the “percentage inhibition” value ([2]; Multidoses (D0-D4, total 15 mg/kg), D9) was 0% and the parasitemia ([2]; Multidoses (D0-D4, total 15 mg/kg), D9, controls 48) was 67%. The “percentage inhibition” value ([2]; Multidoses (D0-D4, total 15 mg/kg), D10) was 0%, the parasitemia ([2]; Multidoses (D0-D4, total 15 mg/kg), D10, controls 1) was 30% and the “duration of the action” value ([2]; after last injection on D4, multidose batch) was “about 3 days”. For the same compound, the “effect on Plasmodium from D8” value ([2]; from D8) was “apparently being no longer effected”, the “parasitemia of monodose batch versus control batch” value ([2]; monodose batch, D4) was “no difference is observed” and the IC50 (B16) was 0.1 µg/mL (≈ 0.141 µM).
